Measurements from the NIST ThermoML archive (doi:10.1021/je0497496).
Where “and” joins values, the source holds several entries; their conditions need not be identical. Equal entries are not always repeated. Numbers after ± are expanded uncertainties.

Details: buoyancy

For `N#N` [nitrogen], which mass density (233.02 K, 506.32 kPa, Fluid (supercritical or subcritical phases)) is on record?
Its mass density is 7.36302 ± 0.025 kg/m3.

And the mass density (233.02 K, 1007.1 kPa, Fluid (supercritical or subcritical phases))?
Its mass density is 14.7253 ± 0.025 kg/m3.

And the mass density (233.02 K, 2000.9 kPa, Fluid (supercritical or subcritical phases))?
Its mass density is 29.5563 ± 0.026 kg/m3.

What about the mass density (233.02 K, 3001.4 kPa, Fluid (supercritical or subcritical phases)) of the same compound?
The mass density was 44.779 ± 0.027 kg/m3.

And the mass density (233.02 K, 5030.2 kPa, Fluid (supercritical or subcritical phases))?
Its mass density is 76.3292 ± 0.031 kg/m3.

And the mass density (233.02 K, 5501 kPa, Fluid (supercritical or subcritical phases))?
The mass density was 83.7756 ± 0.034 kg/m3.

What about the mass density (233.03 K, 506.34 kPa, Fluid (supercritical or subcritical phases)) of the same compound?
Its mass density is 7.36678 ± 0.025 kg/m3.

What about the mass density (233.03 K, 4002.6 kPa, Fluid (supercritical or subcritical phases)) of the same compound?
The mass density was 60.2496 ± 0.029 kg/m3.

And the mass density (253.36 K, 3010.1 kPa, Fluid (supercritical or subcritical phases))?
The mass density was 40.8167 ± 0.026 kg/m3.

And the mass density (253.36 K, 5651.9 kPa, Fluid (supercritical or subcritical phases))?
Its mass density is 77.5333 ± 0.031 kg/m3.

What about the mass density (253.37 K, 158.12 kPa, Fluid (supercritical or subcritical phases)) of the same compound?
Its mass density is 2.1053 ± 0.024 kg/m3.

And the mass density (253.37 K, 1025.2 kPa, Fluid (supercritical or subcritical phases))?
Its mass density is 13.7338 ± 0.025 kg/m3.

What about the mass density (253.37 K, 5051.9 kPa, Fluid (supercritical or subcritical phases)) of the same compound?
The mass density was 69.1481 ± 0.029 kg/m3.

And the mass density (253.38 K, 158.09 kPa, Fluid (supercritical or subcritical phases))?
Its mass density is 2.10982 ± 0.024 kg/m3.

What about the mass density (253.38 K, 2061.7 kPa, Fluid (supercritical or subcritical phases)) of the same compound?
Its mass density is 27.8018 ± 0.025 kg/m3.

What about the mass density (253.38 K, 4007.1 kPa, Fluid (supercritical or subcritical phases)) of the same compound?
Its mass density is 54.5977 ± 0.028 kg/m3.

And the mass density (273.05 K, 1000.4 kPa, Fluid (supercritical or subcritical phases))?
The mass density was 12.3984 ± 0.024 kg/m3.

And the mass density (273.06 K, 500.06 kPa, Fluid (supercritical or subcritical phases))?
The mass density was 6.18643 ± 0.024 kg/m3.

What about the mass density (273.06 K, 500.07 kPa, Fluid (supercritical or subcritical phases)) of the same compound?
Its mass density is 6.19019 ± 0.024 kg/m3.

And the mass density (273.06 K, 500.09 kPa, Fluid (supercritical or subcritical phases))?
Its mass density is 6.18538 ± 0.024 kg/m3.

What about the mass density (273.06 K, 2000 kPa, Fluid (supercritical or subcritical phases)) of the same compound?
The mass density was 24.878 ± 0.024 kg/m3.

What about the mass density (273.06 K, 3000.1 kPa, Fluid (supercritical or subcritical phases)) of the same compound?
The mass density was 37.4313 ± 0.025 kg/m3.

And the mass density (273.06 K, 4000 kPa, Fluid (supercritical or subcritical phases))?
Its mass density is 50.0451 ± 0.026 kg/m3.

What about the mass density (273.06 K, 5000.4 kPa, Fluid (supercritical or subcritical phases)) of the same compound?
The mass density was 62.6679 ± 0.028 kg/m3.

And the mass density (273.06 K, 5500 kPa, Fluid (supercritical or subcritical phases))?
Its mass density is 68.9746 ± 0.029 kg/m3.

What about the mass density (293.02 K, 5015.1 kPa, Fluid (supercritical or subcritical phases)) of the same compound?
Its mass density is 58.0251 ± 0.026 kg/m3.

What about the mass density (293.03 K, 109.97 kPa, Fluid (supercritical or subcritical phases)) of the same compound?
Its mass density is 1.26716 ± 0.023 kg/m3.

What about the mass density (293.03 K, 1037 kPa, Fluid (supercritical or subcritical phases)) of the same compound?
The mass density was 11.9492 ± 0.023 kg/m3.

What about the mass density (293.03 K, 2014 kPa, Fluid (supercritical or subcritical phases)) of the same compound?
Its mass density is 23.2508 ± 0.024 kg/m3.

What about the mass density (293.03 K, 3106.2 kPa, Fluid (supercritical or subcritical phases)) of the same compound?
The mass density was 35.9063 ± 0.024 kg/m3.

What about the mass density (293.03 K, 3996.5 kPa, Fluid (supercritical or subcritical phases)) of the same compound?
Its mass density is 46.2267 ± 0.025 kg/m3.

And the mass density (293.03 K, 5611.3 kPa, Fluid (supercritical or subcritical phases))?
The mass density was 64.8959 ± 0.027 kg/m3.

And the mass density (293.04 K, 109.35 kPa, Fluid (supercritical or subcritical phases))?
The mass density was 1.25784 ± 0.023 kg/m3.

And the mass density (313.12 K, 508.1 kPa, Fluid (supercritical or subcritical phases))?
The mass density was 5.46882 ± 0.023 kg/m3.

What about the mass density (313.12 K, 508.11 kPa, Fluid (supercritical or subcritical phases)) of the same compound?
Its mass density is 5.46814 ± 0.023 kg/m3.

And the mass density (313.12 K, 1000.3 kPa, Fluid (supercritical or subcritical phases))?
Its mass density is 10.7709 ± 0.023 kg/m3.

And the mass density (313.12 K, 1999.8 kPa, Fluid (supercritical or subcritical phases))?
The mass density was 21.5387 ± 0.023 kg/m3.

What about the mass density (313.12 K, 3999.9 kPa, Fluid (supercritical or subcritical phases)) of the same compound?
Its mass density is 43.0379 ± 0.024 kg/m3.

And the mass density (313.12 K, 5000.1 kPa, Fluid (supercritical or subcritical phases))?
Its mass density is 53.7535 ± 0.025 kg/m3.

What about the mass density (313.13 K, 2999.7 kPa, Fluid (supercritical or subcritical phases)) of the same compound?
The mass density was 32.2955 ± 0.024 kg/m3.

And the mass density (313.13 K, 5500 kPa, Fluid (supercritical or subcritical phases))?
The mass density was 59.0903 ± 0.026 kg/m3.

What about the mass density (333.12 K, 147.29 kPa, Fluid (supercritical or subcritical phases)) of the same compound?
The mass density was 1.48909 ± 0.023 kg/m3.

What about the mass density (333.12 K, 147.34 kPa, Fluid (supercritical or subcritical phases)) of the same compound?
The mass density was 1.48309 ± 0.023 kg/m3.

What about the mass density (333.12 K, 1049 kPa, Fluid (supercritical or subcritical phases)) of the same compound?
The mass density was 10.6026 ± 0.023 kg/m3.

What about the mass density (333.12 K, 2020.6 kPa, Fluid (supercritical or subcritical phases)) of the same compound?
The mass density was 20.4085 ± 0.023 kg/m3.

What about the mass density (333.12 K, 3039 kPa, Fluid (supercritical or subcritical phases)) of the same compound?
The mass density was 30.6553 ± 0.023 kg/m3.

What about the mass density (333.12 K, 4001.5 kPa, Fluid (supercritical or subcritical phases)) of the same compound?
The mass density was 40.3032 ± 0.024 kg/m3.

What about the mass density (333.12 K, 5029.1 kPa, Fluid (supercritical or subcritical phases)) of the same compound?
Its mass density is 50.5504 ± 0.025 kg/m3.

And the mass density (333.12 K, 5511.3 kPa, Fluid (supercritical or subcritical phases))?
The mass density was 55.3242 ± 0.025 kg/m3.

And the mass density (353.31 K, 500.05 kPa, Fluid (supercritical or subcritical phases))?
The mass density was 4.76148 ± 0.022 kg/m3.

What about the mass density (353.31 K, 500.09 kPa, Fluid (supercritical or subcritical phases)) of the same compound?
The mass density was 4.76373 ± 0.022 kg/m3.

And the mass density (353.31 K, 1001.8 kPa, Fluid (supercritical or subcritical phases))?
The mass density was 9.53854 ± 0.022 kg/m3.

And the mass density (353.31 K, 4000.7 kPa, Fluid (supercritical or subcritical phases))?
Its mass density is 37.8636 ± 0.023 kg/m3.

What about the mass density (353.32 K, 500.08 kPa, Fluid (supercritical or subcritical phases)) of the same compound?
The mass density was 4.76448 ± 0.022 kg/m3.

And the mass density (353.32 K, 2000 kPa, Fluid (supercritical or subcritical phases))?
Its mass density is 19.0116 ± 0.023 kg/m3.

And the mass density (353.32 K, 3001.8 kPa, Fluid (supercritical or subcritical phases))?
The mass density was 28.4762 ± 0.023 kg/m3.

And the mass density (353.32 K, 4999.9 kPa, Fluid (supercritical or subcritical phases))?
Its mass density is 47.189 ± 0.024 kg/m3.

What about the mass density (353.32 K, 5500 kPa, Fluid (supercritical or subcritical phases)) of the same compound?
The mass density was 51.8318 ± 0.024 kg/m3.

Which results are given for `O` [water]?
mass density (273.62 K, 105.71 kPa, Liquid): 999.859 ± 0.28 kg/m3; mass density (273.62 K, 1225.7 kPa, Liquid): 1000.42 ± 0.28 kg/m3; mass density (273.63 K, 105.71 kPa, Liquid): 999.82 ± 0.28 kg/m3; mass density (273.63 K, 2307.2 kPa, Liquid): 1001.02 ± 0.28 kg/m3; mass density (273.63 K, 3781.6 kPa, Liquid): 1001.68 ± 0.28 kg/m3; mass density (273.63 K, 4990.1 kPa, Liquid): 1002.27 ± 0.28 kg/m3; mass density (292.94 K, 1063.5 kPa, Liquid): 998.673 ± 0.28 kg/m3; mass density (292.94 K, 2097.6 kPa, Liquid): 999.18 ± 0.28 kg/m3; mass density (292.94 K, 3109.3 kPa, Liquid): 999.633 ± 0.28 kg/m3; mass density (292.94 K, 4139.9 kPa, Liquid): 1000.06 ± 0.28 kg/m3 and 1000.08 ± 0.28 kg/m3; mass density (292.95 K, 109.3 kPa, Liquid): 998.268 ± 0.28 kg/m3; mass density (302.91 K, 110.01 kPa, Liquid): 995.77 ± 0.28 kg/m3; mass density (302.91 K, 2049.8 kPa, Liquid): 996.571 ± 0.28 kg/m3; mass density (302.91 K, 4030.1 kPa, Liquid): 997.451 ± 0.28 kg/m3; mass density (302.92 K, 1005.9 kPa, Liquid): 996.106 ± 0.28 kg/m3; mass density (312.96 K, 345.05 kPa, Liquid): 992.42 ± 0.28 kg/m3; mass density (312.96 K, 1195.1 kPa, Liquid): 992.749 ± 0.28 kg/m3; mass density (312.96 K, 2093.1 kPa, Liquid): 993.139 ± 0.28 kg/m3; mass density (312.96 K, 3064.5 kPa, Liquid): 993.609 ± 0.28 kg/m3; mass density (312.96 K, 4141.2 kPa, Liquid): 994.071 ± 0.28 kg/m3
